Literature values, collected in US20060083700A1, “Use of a novel phytonutrient rich bioactive concentrate (Ri-ActiveTM) for the prevention and treatment of cardiovascular disease, diabetes and other health disorders” (NaturRi LLC, priority 2004, published 2006).

Tested on: hypercholesterolemic subjects
Details: 28 subjects, phases of 35 days

## CC[C@H](C)C(=O)O[C@H]1C[C@@H](C)C=C2C=C[C@H](C)[C@H](CC[C@@H]3C[C@@H](O)CC(=O)O3)[C@H]21 [lovastatin]
  reduction of LDL-C: 15%
  reduction of serum total cholesterol: 13%
